Legend:
[1] = tested on: Human adipose tissue derived stem cells (hADSCs); assay: Cell viability by MTT assay in hADSCs; assay type: cell-based; conditions: 10 μM, % of control
Protocol: (§1) Human adipose tissue derived stem cells (hADSCs), which is derived from adipose tissue, were selected an maintained in a keratinocyte SFM medium (Gibco BRL, Gaithersburg, Md.) supplemented with 5% FBS, 100 U/ml of penicillin and streptomycin.
(§2) New synthetic compounds were dissolved in DMSO to a final concentration of 10 mM and stored at −20° C. The concentration used was 10 μM and freshly diluted to the medium with a final concentration of DMSO at 0.1%. Control cultures were treated with the same amount of DMSO as used in the corresponding experiments.
The MTT assay is a calorimetric assay based on the ability of the viable cells to reduce a soluble yellow tetrazolium salt to blue formazan crystals (Carmichael, J. et. el. Cancer Research 1987, 47, 936). After compound treatments, 350 μL of MTT solution ([…] in PBS) were added to each well and incubated for 4 hrs. DMSO was then added for another 0.5 hrs to thoroughly dissolve the dark blue crystals. The absorbance at 570 nm was measured with an ELISA reader. Inhibition of mitochondrial metabolism was shown as relative activity (% of control).

[2] = tested on: Human adipose tissue derived stem cells (hADSCs); assay: Cytotoxicity assay by lactate dehydrogenase (LDH) leakage in hADSCs; assay type: cell-based; conditions: 10 μM, % of total cell toxicity
Protocol: as §1, §2
Lactate dehydrogenase (LDH) leakage from cells was measured to quantify the cytotoxicity by using a cytotoxicity detection kit (Roche, Germany) (Crowston, J. G. et al Invest. Ophthalmol. Vis. Sci. 1998, 39, 449). Cells were previously seeded into 48-well plates (4×10^4 cells/well). After a drug treatment, the supernatants and cell layers of the cultures were collected for assay. According to the manufacturer's guidelines for the detection kit, cell layers were lysed with 1% TritonX-100, and cell lysates and supernatants were assayed in a 96-well plate, respectively. Briefly, 100 μL of catalyst solution was added in each assay well for 20 min. Absorbance was measured with an ELISA reader with a 490 nm filter. LDH leakage was shown as relative activity (% of total cell toxicity).

[3] = tested on: Human adipose tissue derived stem cells (hADSCs); assay: Osteogenic differentiation and quantification of mineralization (Alizarin red S) in hADSCs; assay type: cell-based; conditions: 10 μM, 10 days
Protocol: as §1, §2
Osteogenic differentiation was induced by culturing cells in an osteo-induction medium (OIM, 10% FBS, 0.1 μM dexamethasone, 10 mM β-glycerophosphate, and L-Ascorbic 2 phosphate 100 μM in low glucose DMEM) for 7-14 days. The extracellular matrix calcification was estimated by using an Alizarin red S stain (Carl, A. et al Anal. Biochem. 2004, 329, 77). The Alizarin red S-stained mineral was quantified by the osteogenesis quantification kit (CHEMICON®).

[4] = tested on: MCF-7 cells (human breast adenocarcinoma); assay: Cytotoxicity assay (MTS reduction), MCF-7; assay type: cell-based; conditions: 3 days, % of DMSO control
Protocol: (§3) MCF-7 cells (human breast adenocarcinoma), NCI-H460 cells (non-small-cell lung cancer) and SF-268cells (glioblastoma cells) were cultured in a Dulbecco's modified Eagle's medium supplemented with a 10% fetal calf serum and a nonessential amino acid (Life Technologies, Inc.) and maintained at 37° C. in a humidified incubator with 5% CO2.
(§4) Human cancer cells were seeded in 96-well microtiter plates at a density of 6500, 2500 and 7500 cells/well in 100 μl of culture medium for MCF-7, NCI-H460, and SF-268, respectively. […] Cells were treated with test compounds for 3 days. Cell viability was determined by the 5-[3-(carboxymethoxy)-phenyl]-2-(4,5-dimethylthiazolyl)-3-(4-sulfophenyl)tetrazolium salt (MTS) reduction assay. Actinomycin D (10 μM, final concentration) and DMSO (0.1%, final concentration) were used as positive and vehicle controls, respectively. Results were expressed as a % of the DMSO control.

[5] = tested on: NCI-H460 cells (non-small-cell lung cancer); assay: Cytotoxicity assay (MTS reduction), NCI-H460; assay type: cell-based, human; conditions: 3 days, % of DMSO control
Protocol: as §3, §4

[6] = tested on: SF-268 cells (glioblastoma cells); assay: Cytotoxicity assay (MTS reduction), SF-268; assay type: cell-based, human; conditions: 3 days, % of DMSO control
Protocol: as §3, §4

2-[4-(3,4-Dimethoxyphenyl)isoxazol-5-yl]-5-([6-(piperidin-1-yl)hexyloxy]phenol [8b]
Cell viability (3 days, MTT) [1]: 11%
Cell cytotoxicity (3 days, LDH) [2]: 41%
Mineralization (10 days) [3]: 285%
Growth percentage MCF7 (Breast) ([4]; 4 μg/mL): 93%
Growth percentage MCF7 (Breast) ([4]; 20 μg/mL): 4%
Growth percentage NCI-H460 (Lung) ([5]; 4 μg/mL): 89%
Growth percentage NCI-H460 (Lung) ([5]; 20 μg/mL): 2%
Growth percentage SF-268 (CNS) ([6]; 4 μg/mL): 116%
Growth percentage SF-268 (CNS) ([6]; 20 μg/mL): 15%
